The text below walks through data of patent publication EP1310247A1 (priority 1997, dated 1999).

SMILES strings stand for the structures.

The subject of data set [1] is Male Swiss-Webster mice. In words: Locomotor activity: stimulant and depressant effects (horizontal distance). The data set is classed as in vivo.
The test system of data set [2] is dogs. The data set can be described thus: Dosage required to raise mean arterial pressure (MAP) by 10%. The data set is classed as in vivo. The settings on record: experimentally determined. As to the method:
Nasal airway pressure was measured using a Validyne pressure transducer (Validyne Engineering, Northridge, CA) with a 2.25 cm H2O range membrane connected to a multipen recorder (Grass Instruments, Quincy, MA). Air was passed through an in-line direct measure flow meter (Gilmont Instruments, Barrington, IL) connected to the nasal opening cannula. Pressure was measured in the line with a constant flow rate (150 ml/min) of air. Drugs were directly injected into the jugular vein using a 30 gauge needle. All injections were of a constant 0.1 ml volume. In the congestion challenged groups congestion was achieved by an intranasal administration of histamine (50 mM, 0.02 ml/nostril). The histamine was expelled after 2 minutes with a short nasal cannula airflow and subsequent enantiomeric drug doses were directly injected into the jugular vein. The dosage chosen for each drug was the amount needed to increase the mean arterial pressure (MAP) of the animal by 10%; this dosage served as the "100%" dose for the initial nasal airway studies. […] The dosage required for rats was calculated by proportionately adjusting the experimentally determined dog dosage to account for the lesser weight of the rats.

Data set [3] has as its system Male Swiss-Webster mice. The data set can be described thus: H1 antihistamine (triprolidine) interaction study, locomotor activity. To be noted: pretreatment with 0.01, 0.1, or 1.0 mg/kg triprolidine 20 minutes before. The data set is classed as in vivo. How it is done:
H1 antihistamine interaction studies. […] The mice were then immediately placed in the activity-testing apparatus for a 2 hour session. […] Eight mice were tested for each triprolidine/sympathomimetic combination.
The dose-effect data were considered in 1-way analysis of variance, and planned individual comparisons were conducted between each dose and the saline control group.

Data set [4] concerns Sprague Dawley rats. In words: Nasal airway pressure / resistance in anesthetized rats, normal and histamine-challenged. The data set is classed as in vivo. To be noted: 75% dose.
Data set [5] relates to Sprague Dawley rats. The data set can be described thus: Mean arterial blood pressure after 75% dose in rats. To be noted: compared with (+)-ephedrine.
The subject of data set [6] is α2-Receptor. The data set is classed as binding, mongrel dogs.

On to `CC(N)Cc1ccccc1` (single isomer, unassigned; (+)) [(+)-amphetamine], for which the “Locomotor stimulant effects, time course” value in data set [1] (2-hour session after i.p. injection, result in words) is “dose- and time-dependent increase in the distance traversed”.

With `CN[C@H](C)[C@@H](O)c1ccccc1` [(+)-ephedrine], in data set [2], the “Dosage required to raise MAP by 10%, Dog” value amounted to 200 µg/kg. In data set [3], the “interaction with triprolidine pretreatment (horizontal movement)” value (“interaction” below) is “no drug interaction is apparent”. Besides, the “effect on normal airway decongestion” value in data set [4] is given as “the same efficacious effect on normal airway decongestion”.

As to `CN[C@@H](C)[C@@H](O)c1ccccc1` [(+)-pseudoephedrine], the “Dosage required to raise MAP by 10%, Dog” value in data set [2] stood at 200 µg/kg. The “interaction” value in data set [3] is recorded as “increased horizontal movement is observed”.

Regarding `CN[C@@H](C)[C@H](O)c1ccccc1` [(-)-ephedrine], the “Dosage required to raise MAP by 10%, Dog” value in data set [2] stood at 100 µg/kg. Besides, the “increase in blood pressure” value in data set [5] is “slightly greater (though significant) increase in blood pressure than (+)-ephedrine”. Also, the “interaction” value in data set [3] was “increased horizontal movement is observed”. In addition, the “effect on normal airway decongestion” value in data set [4] was “the same efficacious effect on normal airway decongestion”.

Regarding `CNC[C@H](O)c1cccc(O)c1` [(-)-phenylephrine], the “Dosage required to raise MAP by 10%, Dog” value in data set [2] amounted to 10 µg/kg.

On to `CNC[C@H](O)c1ccc(O)c(O)c1` [Epinephrine], for which the “displacement of bound p-iodoclonidine” value in data set [6] was “easily displaced all bound p-iodoclonidine”.

For the molecule `Cc1ccc(/C(=C\CN2CCCC2)c2ccccn2)cc1` [triprolidine], the “effect on horizontal distance” value in data set [1] (mouse, in vivo) is recorded as “failed to affect horizontal distance”. The effect on locomotion entry in data set [1] (triprolidine alone, 50 and 100 mg/kg, beginning within 10 minutes, lasting 30 to 40 minutes) is listed as “Dose-dependent depression of locomotion”.
